{
  "source": "patent EP0705601B1",
  "about": "“Anthraquinones containing solutions for parenteral administration” (LOMAPHARM Rudolf Lohmann GmbH KG Pharmazeutische Fabrik, priority 1994, dated 1996)",
  "key": {"[1]": {"assay": "Increase of solubility with the solubilisers of the invention relative to purely aqueous phase", "format": "physicochemical", "details": "fold increase versus solubility in purely aqueous phase, with solubilisers I-III", "excerpt": "Überraschenderweise wurde nun gefunden, daß die Löslichkeit der Anthrachinone durch den Einsatz von mindestens einem Lösungsvermittler ausgewählt aus • I. Polyethylenglykol-660-12-Hydroxystearat • II. Tetrahydrofurfurylalkoholpolyethylenglykolether • III. Wasserlösliche Beta- und Gamma-Cyclodextrinderivate, allein oder in Kombination mit anderen, physiologisch geeigneten, nichtwäßrigen Lösungsmitteln bzw. Lösungsvermittlern um mehr als das Hundertfache ihrer Löslichkeit in rein wäßriger Phase erhöht werden kann."}, "[2]": {"details": "water, Raumtemperatur, cited from earlier work"}, "[3]": {"details": "man; D. Lorenz et al. 1985; cited from earlier work"}},
  "note": "Like-named read-outs stand apart in the source and are kept apart here.",
  "data": [
    {"smiles": "O=C1c2ccccc2C(=O)c2c1ccc(O)c2O", "note": "[Alizarin]", "values": [
      {"measurement": "Erhöhung der Löslichkeit", "setting": "[1]", "value": "mehr als das Tausendfache"},
      {"measurement": "Löslichkeit in Wasser", "setting": "[2]", "value": "ca. 2 µmol/l"},
      {"measurement": "Löslichkeit in Wasser", "setting": "[2]; conversion of the µmol/l value", "value": "≈ 0,48 mg/l"},
      {"measurement": "Halbwertzeit", "setting": "[3]", "value": "ca. 12 Std."}
    ]}
  ]
}
